Reference: patent US5527940A, “Methanediphosphonate derivative, its manufacturing process and its pharmaceutical applications” (Toray Industries, Inc., priority 1991, dated 1996)

Tests used:
adjuvant arthritis model = test: Adjuvant Arthritis Test; assay type: in vivo, 7 week old female Lewis rats; details: subcutaneous daily days 8-21
Description: Multiple arthritis resembling human chronic articular rheumatism occurs when tubercule bacillus adjuvant is injected into rats. The antiinflammatory, antirheumatic and bone metabolism improving action of compounds of the present invention were investigated according to the following procedure using this adjuvant arthritis model.
0.1 mg of dried non-viable Mycobacterium butyricum cells were suspended in 0.1 ml of liquid paraffin followed by injection into the skin of the left hind limb of 7 week old female Lewis rats. The compounds obtained in the Examples were dissolved in sterilized distilled water and administered subcutaneously every day for two weeks from the 8th to 21st days after injection of adjuvant. During that time, the volumes of the right and left hind limbs were measured and the swelling rate was calculated according to the following formula: [formula]
Moreover, the swelling inhibition rates were also determined according to the following formula, and those values are shown in Table 1. [formula]
Soft X-ray radiographs were taken of the left and right hind limbs of the animals following sacrifice on day 22. The degree of bone destruction at five locations in the left and right hind limbs was evaluated based on the soft X-ray radiographs scoring those results among 5 ranks. Moreover, the bone destruction inhibition rate was calculated using the following formula, and those values are shown in Table 1. [formula]
Those results that were significant at a level of significance of P<0.001 with respect to a control group administered only sterilized distilled water according to the Student's t-test and Chukey's multiple comparison method were indicated with three asterisks (***), those results that were significant at a level of significance of P<0.01 were indicated with two asterisks (**), and those significant at a level of significance of P<0.05 were indicated with one asterisk (*).
The swelling inhibition rates for Example 7 and Example 33 are the values for day 14 and day 21.

[1] = test system: IL-1 stimulated release of proteoglycan from cartilage cells; test: Proteoglycan release from IL-1 stimulated rabbit knee joint cartilage cells (35S label); assay type: cell-based, New Zealand White rabbits; details: 100 μM compound, IL-1β 30 units/ml, 24 hours
Description: When cartilage from a rabbit knee joint is isolated and cultured followed by IL-1 stimulation, proteoglycan of glycoprotein, the major component of cartilage, is released. The IL-1 inhibitory action of compounds of the present invention was measured as described below using this action as an index.
Exsanguination was performed on 3 week old, male New Zealand White rabbits having body weights of 250-300 g under diethyl ether anesthesia, after which the knee joints were removed. The cartilage portions of the knee joints were removed with a scalpel and immersed in a CMF solution comprising 0.14M sodium chloride, 4 mM potassium chloride, 0.4 mM sodium dihydrogen phosphate, 12 mM sodium bicarbonate, 0.2 mM potassium dihydrogen phosphate and 11 mM glucose. This cartilage was then placed in 0.1% EDTA and incubated for 20 minutes at 37° C. […]
The cell layer was dissolved by adding 200 μg of pronase E and treating for 24 hours at 37° C. […] The precipitated proteoglycan was collected in a glass filter, added to a liquid scintillator and counted with a liquid scintillation counter. […]
Each of the resulting counts were expressed as a percentage of the count obtained from the initially added inorganic sulfuric acid. […]

CSc1ccc(SC(P(=O)(O)O)P(=O)(O)O)cc1 [Example 2, (4-methylthiophenyl)thiomethanediphosphonic acid]
Bone Destruction Inhibition Rate with respect to control group, Day 22 (adjuvant arthritis model; Day 22, soft X-ray score of left and right hind limbs): 62.3%
Swelling Inhibition Rate with respect to Control Group, Day 16, Left (adjuvant arthritis model; left (adjuvant-injected) hind limb, Day 16): 96.0%
Swelling Inhibition Rate with respect to Control Group, Day 21, Left (adjuvant arthritis model; left (adjuvant-injected) hind limb, Day 21): 122.5%
Swelling Inhibition Rate with respect to Control Group, Day 16, Right (adjuvant arthritis model; right hind limb, Day 16): 9.1%
Swelling Inhibition Rate with respect to Control Group, Day 21, Right (adjuvant arthritis model; right hind limb, Day 21): 30.6%
Proteoglycan count, Cell Layer (percentage of the count from initially added inorganic sulfuric acid) ([1]; cell layer): 0.28 ± 0.019%
Proteoglycan count, Cell Supernatant (percentage of the count from initially added inorganic sulfuric acid) ([1]; cell supernatant): 0.74 ± 0.061%
